Assay results as given in patent publication US11952387B2, “Bicyclic heteroaromatic ring derivative” (priority 2018, dated 2024).

What follows are molecules tested on HRV14 (assay: Inhibitory activity against human rhinovirus infection and replication (quantitative real-time PCR)). Settings: Human rhinovirus sp., MRC5; 100 nmol/L test compound; MRC-5 cells infected with HRV14 at MOI=0.2; 48 hours; viral load normalized to 18s rRNA; read-out: Percent Inhibition.
Format: cell-based
Procedure: Evaluation of inhibitory activity against human rhinovirus infection and replication (by quantitative real-time PCR)
A required amount of a test compound was weighed off and dissolved in dimethyl sulfoxide (DMSO) to yield a 10 mmol/L stock solution. Next, the stock solution was diluted with a medium for viral infection (minimum essential medium (MEM) supplemented with 2% fetal bovine serum, 5% Tryptose phosphate broth, and 30 mmol/L MgCl2) to prepare 100 nmol/L and 1000 nmol/L of test compound solutions. MRC-5 (human fetal lung fibroblast: ATCC) was suspended at a density of 30000 cells/mL in cell culture medium (MEM supplemented with 10% fetal bovine serum), and 625 μL of the suspension per well was seeded into a 24-well cell culture plate and cultured at 37° C. in 5% CO2. After 72 hours, it was confirmed that the plate had become 80% confluent. The plate was washed with 625 μL of phosphate-buffered physiological saline (Ca/Mg-free; PBS-) once, and 625 μL of the test compound solution prepared just before use was immediately added to the plate. After 30 minutes, the medium was removed followed by addition of 187.5 μL of the test compound solution that had been prepared such that the cells were infected with HRV14 (ATCC) at multiplicity of infection (MOI)=0.2. The cells were then cultured at 35° C. in 5% CO2. After additional 2 hours, 625 μL of the test compound solution prepared just before use was added, and the cells were cultured at 35° C. in 5% CO2. After 48 hours, the cells were washed with 625 μL of PBS- once, and total RNA was extracted from the cells using RNeasy (R) plus kit (Qiagen) according to the manufacturer's instruction. Subsequently, cDNA was synthesized using High-Capacity cDNA Reverse Transcription Kit (Thermo Fisher Scientific). Finally, quantitative real-time PCR was performed in 7500 Fast Real-time PCR system (Life technologies) to measure HRV14 and 18s rRNA. The measurement protocol consisted of the initial denaturation phase at 95° C. for 20 seconds followed by 40 cycles of the denaturation step at 95° C. for 3 seconds and the annealing/elongation step at 60° C. for 30 seconds. The primers used were HRV14 forward primer set forth in SEQ ID NO: 1 and HRV14 reverse primer set forth in SEQ ID NO: 2, and the probe is set forth in SEQ ID NO: 3.
18s rRNA was measured using Eukaryotic 18S rRNA Endogenous Control (Applied Biosystems). According to Equation 1, 18s ribosomal RNA was used as an internal standard to normalize the viral load of HRV14: Viral load of HRV14=The amount of HRV14 in virus-infected cells/the amount of 18s rRNA in virus-infected cells Equation 1
Inhibitory activity of test compounds was calculated as a percent inhibition (%) according to Equation 2: Percent inhibition (%)=[the viral load of HRV in virus-infected cells in the absence of the test compound −the viral load of HRV in virus-infected cells in the presence of the test compound]/[the viral load of HRV in virus-infected cells in the absence of the test compound]×100 Equation 2
The results of using 100 nmol/L test compound solutions were shown in the tables below according to Examples. In the tables, percent inhibition was expressed as follows: percent inhibition >80%: +++, 80%≥percent inhibition >50%: ++, and 50%≥percent inhibition:+.

Compound | inhibition at 0.1 µM
Cc1nc2sc(C(C)(C)O)nn2c1-c1ccc(C(F)(F)F)c(S(=O)(=O)C2COC2)c1 [Example 2-28] | > 80%
COc1c(F)cc(-c2c(C)nc3sc(C(C)(C)O)nn23)cc1S(=O)(=O)NC(C)(C)CO [Example 2-29] | > 80%
Cc1nc2sc(C(C)(C)O)nn2c1-c1ccc(C(F)(F)F)c(S(=O)(=O)NCC2(O)COC2)c1 [Example 2-30] | > 80%
Cc1nc2sc(C(C)(C)O)nn2c1-c1ccc(C(F)(F)F)c(S(=O)(=O)NC2(CO)COC2)c1 [Example 2-31] | > 80%
Cc1nc2sc(C(C)(C)O)nn2c1-c1ccc(C(F)(F)F)c(S(=O)(=O)NC2(CO)CC(F)(F)C2)c1 [Example 2-32] | > 80%
Cc1nc2sc(C(C)(C)O)nn2c1-c1ccc(C(F)(F)F)c(S(=O)(=O)NCC(O)C(F)(F)F)c1 (stereo not shown) [Example 2-33] | > 80%
COc1ccc(-c2c(C)nc3sc(C(C)(C)O)nn23)cc1S(=O)(=O)C(C)(C)C [Example 2-34] | > 80%
Cc1nc2sc(C(C)(C)O)nn2c1-c1ccc(C(F)(F)F)c(S(=O)(=O)CC2(CO)COC2)c1 [Example 2-35] | 50 to 80%
Cc1nc2sc(C(C)(C)O)nn2c1-c1ccc(C(F)(F)F)c(S(=O)(=O)C2CN(C(=O)OC(C)(C)C)C2)c1 [Example 2-36] | > 80%
Cc1nc2sc(C(C)(C)O)nn2c1-c1ccc(C(F)F)c(S(=O)(=O)CC(C)(C)O)c1 [Example 2-37] | 50 to 80%
Cc1nc2sc(C(C)(C)O)nn2c1-c1cccc(S(=O)(=O)CC(C)(C)O)c1 [Example 2-38] | ≤ 50%
Cc1ccc(-c2c(C)nc3sc(C(C)(C)O)nn23)cc1S(=O)(=O)CC(C)(C)O [Example 2-39] | > 80%
COc1ccc(-c2c(C)nc3sc(C(C)(C)O)nn23)cc1S(=O)(=O)CC1(O)COC1 [Example 2-40] | ≤ 50%
COc1ccc(-c2c(C)nc3sc(C(C)(C)O)nn23)cc1S(=O)(=O)CC1(C)COC1 [Example 2-41] | 50 to 80%
COc1ccc(-c2c(C)nc3sc(C(C)(C)O)nn23)cc1S(=O)(=O)CCC(C)(C)O [Example 2-42] | ≤ 50%
COc1c(F)cc(-c2c(C)nc3sc(C(C)(C)O)nn23)cc1S(=O)(=O)CC(C)(C)O [Example 2-43] | 50 to 80%
Cc1nc2sc(C(C)(C)O)nn2c1-c1ccc(C(F)(F)F)c(S(=O)(=O)C2CC(F)(F)C2)c1 [Example 2-44] | > 80%
Cc1nc2sc(C(C)(C)O)nn2c1-c1ccc(C(F)(F)F)c(S(=O)(=O)CCC(C)(C)O)c1 [Example 2-45] | ≤ 50%
Cc1nc2sc(C(C)(C)O)nn2c1-c1ccc(C(F)(F)F)c(S(=O)(=O)[C@H]2C[C@@H](O)C2)c1 [Example 2-46] | > 80%
Cc1nc2sc(C(C)(C)O)nn2c1-c1ccc(C(F)(F)F)c(S(=O)(=O)[C@H]2C[C@H](O)C2)c1 [Example 2-47] | > 80%
COc1ccc(-c2c(C)nc3sc(C(C)(C)O)nn23)cc1S(=O)(=O)C1COC1 [Example 2-49] | ≤ 50%
COc1ccc(-c2c(C)nc3sc(C(C)(C)O)nn23)cc1S(=O)(=O)CC(C)(C)CO [Example 2-50] | ≤ 50%
COc1ccc(-c2c(C)nc3sc(C(C)(C)O)nn23)cc1S(=O)(=O)C1CN(C(=O)OC(C)(C)C)C1 [Example 2-51] | > 80%
Cc1nc2sc(C(C)(C)O)cn2c1-c1ccc(C(F)(F)F)c(S(=O)(=O)CC(C)(C)O)c1 [Example 2-52] | ≤ 50%
[2H]C([2H])([2H])C(O)(CS(=O)(=O)c1cc(-c2c(C)nc3sc(C(C)(C)O)nn23)ccc1OC)C([2H])([2H])[2H] [Example 2-53] | 50 to 80%

Compound | inhibition at 0.1 µM
COc1ccc(-c2c(C)nc3sc(C(C)(C)O)nn23)cc1S(=O)(=O)[C@H]1C[C@@H](O)C1 [Example 2-54] | ≤ 50%
COc1ccc(-c2c(C)nc3sc(C(C)(C)O)nn23)cc1S(=O)(=O)[C@H]1C[C@@](C)(O)C1 [Example 2-55] | ≤ 50%
COc1ccc(-c2c(C)nc3sc(C(C)(C)O)nn23)cc1S(=O)(=O)[C@H]1C[C@H](O)C1 [Example 2-56] | ≤ 50%
CCOc1ccc(-c2c(C)nc3sc(C(C)(C)O)nn23)cc1S(=O)(=O)CC(C)(C)O [Example 2-57] | 50 to 80%
[2H]C([2H])([2H])Oc1ccc(-c2c(C)nc3sc(C(C)(C)O)nn23)cc1S(=O)(=O)CC(C)(C)O [Example 2-58] | 50 to 80%
COc1ccc(-c2c(C)nc3sc(C(C)(C)O)nn23)cc1S(=O)(=O)CC(C)(O)CO (stereo not shown) [Example 2-59] | ≤ 50%
COc1ccc(-c2c(C)nc3sc(C(C)(C)O)nn23)cc1S(=O)(=O)CC(C)(C)C#N [Example 2-60] | ≤ 50%
COc1ccc(-c2c(C)nc3sc(C(C)(C)O)nn23)cc1S(=O)(=O)[C@@H]1CC[C@@H](O)C1 [Example 2-62] | ≤ 50%
COc1ccc(-c2c(C)nc3sc(C(C)(C)O)nn23)cc1S(=O)(=O)CC1(O)CCC1 [Example 2-63] | ≤ 50%
COc1ccc(-c2c(C)nc3sc(C(C)(C)O)nn23)cc1S(=O)(=O)CC1(O)CCC(F)(F)CC1 [Example 2-64] | > 80%
COc1ccc(-c2c(C)nc3sc(C(C)(C)O)nn23)cc1S(=O)(=O)C1CC2(COC2)C1 [Example 2-65] | > 80%
COc1ccc(-c2c(C)nc3sc(C(C)(C)O)nn23)cc1S(=O)(=O)C1(C(C)(C)O)CC1 [Example 2-66] | > 80%
COc1ccc(-c2c(C)nc3sc(C(C)(C)O)nn23)cc1S(=O)(=O)C1(C(C)(C)O)CC(F)(F)C1 [Example 2-67] | > 80%
COc1ccc(-c2c(C)nc3sc(C(C)(C)O)nn23)cc1S(=O)(=O)C1CCC2(CC1)OCCO2 [Example 2-68] | 50 to 80%
COc1ccc(-c2c(C)nc3sc(C(C)(C)O)nn23)cc1S(=O)(=O)C1CC(F)(F)C1 [Example 2-69] | 50 to 80%
COc1ccc(-c2c(C)nc3sc(C(C)(C)O)nn23)cc1S(=O)(=O)[C@@H]1CC[C@](C)(O)C1 [Example 2-70] | ≤ 50%
COc1ccc(-c2c(C)nc3sc(C(C)(C)O)nn23)cc1S(=O)(=O)[C@H]1C[C@@H](C(C)(C)O)C1 [Example 2-71] | > 80%
COc1ccc(-c2c(C)nc3sc(C(C)(C)O)nn23)cc1S(=O)(=O)[C@]1(C2CC2)C[C@H](O)C1 [Example 2-72] | ≤ 50%
COc1ccc(-c2c(C)nc3sc(C(C)(C)O)nn23)cc1S(=O)(=O)[C@H]1C[C@](C)(C(C)(C)O)C1 [Example 2-73] | > 80%
COc1ccc(-c2c(C)nc3sc(C(C)(C)O)nn23)cc1S(=O)(=O)[C@H]1C[C@@](C)(C(C)(C)O)C1 [Example 2-74] | ≤ 50%
COc1ccc(-c2c(C)nc3sc(C(C)(C)O)nn23)cc1S(=O)(=O)[C@]1(C)C[C@H](O)C1 [Example 2-75] | ≤ 50%
COc1ccc(-c2c(C)nc3sc(C(C)(C)O)nn23)cc1S(=O)(=O)[C@H]1C[C@](C)(O)C1 [Example 2-76] | > 80%
Cc1nc2sc(C(C)(C)O)nn2c1-c1ccc(C(F)(F)F)c(S(=O)(=O)[C@H]2C[C@](C)(O)C2)c1 [Example 2-77] | > 80%
COc1ccc(-c2c(C)nc3sc(C(C)(C)O)nn23)cc1S(=O)(=O)[C@H]1C[C@@H]1C(C)(C)O [Example 2-78] | ≤ 50%
